Source: article PMC9764201, “Half-calcified calmodulin promotes basal activity and inactivation of the L-type calcium channel CaV1.2” (The Journal of Biological Chemistry, 2022)

Test system: CaV1.2
Test: Cell-attached single-channel recording of CaV1.2 with ectopic CaM in HEK 293T/17 cells
Assay type: cell-based, rat
Details: 110 mM Ba2+, 0 mV from -80 mV; mean±SEM (Table S3)
Description: HEK 293T/17 cells (ATCC) were maintained as previously described ([15], [53]). For electrophysiology, Lipofectamine 2000 (Invitrogene) or JetPrime (Polyplus Transfection) was used to transiently transfect cells with indicated plasmid DNAs in 35 mm dishes. For biochemistry experiments, transient transfection of HEK 293T/17 cells in […] dishes was achieved using either JetPrime or, as previously described ([15], [53]), the calcium phosphate method. Cells were cotransfected with plasmids encoding the pore-forming α11.2 subunit N-terminally tagged with eCFP ([15], [53]) or mCherry ([54]) plus pGWIH-based plasmids encoding the auxiliary subunits rat β2A ([55]) and rabbit α2δ-1 ([56]) as previously described ([15], [53]). For all transfections, equimolar ratio of 1:1:1 was used for CaV1.2 channel subunits and later further optimized (JetPrime) for CaM (at ratio of 1:1:1:0.5 for α11.2:β2A:α2δ−1:CaM). Rat brain α11.2 (GenBank ID: M67515.1) N-terminally fused to eCFP was utilized as previously described ([15]). The point mutations in plasmids encoding single-residue I1654A, Y1657D (this report), and K1662E exchanges in α11.2 were generated via QuikChange II as previously described ([15], [53]) using N-terminally eCFP ([15], [53]) or mCherry tagged ([54]) rat brain α11.2 plasmid template DNAs. We studied CDI using mCherry-tagged α11.2 subunit coexpressed with the other, untagged CaV1.2 subunits and WT CaM or the calmodulin 34 mutant CaM34 (kindly provided by JP Adelman, ([8])). For some biochemical experiments shown in Fig. S2, YFP-tagged CaM was used ([32]).
Single-channel recordings were performed as described previously ([15], [31]). In brief, low noise raw data were recorded with an Axopatch 200B amplifier and data were sampled at 10 kHz with a low-pass filter at 2 kHz (3 dB, four pole Bessel) and digitalized with a Digidata 1440 digitizer. Recording electrodes were pulled from borosilicate capillary glass ([…]) with a Flaming/Brown micropipette puller (Model P-97, Sutter Instruments), heat polished, and coated with Sylgard (Sylgard 289) until close to the electrode tip. Electrode resistance in solution was usually 5 to 10 MΩ. To keep the membrane potential close to 0 mV the extracellular bath solution contained (in mM) 120 K-Glutamate, 25 KCl, 2 MgCl2, 1 CaCl2, 10 EGTA, 10 Hepes, and 2 Na2-ATP pH 7.4 (KOH). The intracellular pipette solution contained (in mM) 110 BaCl2 and 10 Hepes, adjusted to pH 7.4 (TEA-OH). Cells were depolarized for 2 s from a holding potential of -80 mV to 0 mV every 7 s. Event lists were created from raw Ba^2+ currents after leak and capacity transients were digitally subtracted by pClamp 10. Unitary current events were then analyzed based on the half-height criterium ([57]) using the single-channel software provided by pClamp 10.
For statistical analysis, single-channel parameters were corrected by the channel number (k), respectively, the maximum of simultaneously open channels (PMAX). The number of channels in the patch was estimated based on the observed simultaneous openings and is a precise parameter for k < 4, as included in this article and originally described by R. Horn ([58]). On average, 100 to 200 Ba^2+ current traces were recorded for each cell for each experimental condition for an appropriate statistical analysis.
Table S3. Effects of ectopically expressed CaM and CaM34 on CaV1.2 as determined by single channel recordings with 110 mM Ba2+. HEK 293T/17 cells were transiently transfected with eCFP-tagged rat CaV1.2, α2δ1 and β2a alone or together with WT CaM (+CaM) or CaM34 (+CaM34). Parameters were corrected for the number of channels (k) in the patch. Recordings were obtained at a test potential of 0 mV from a holding potential of -80 mV. For all parameters, statistical significance p was determined for CaV1.2 without ectopic CaM expression and for CaV1.2 plus CaM34 agains CaV1.2 plus wt CaM (one-way ANOVA followed by Bonferroni test). […]

CaV1.2: WT rat brain α11.2 with α2δ1 and β2A expressed in HEK 293T/17 cells
Availability: 77±7%
IPeak: 19.7±4.0 fA
MEA (mean ensemble average): 9.6±2.4 fA
MOT (mean open time): 1.2 ± 0.2 ms
Po: 2.3±0.6%
unitary i: 0.81±0.03 pA
